Counter-ions that a name gives are not always drawn.
Assays:
[1] = biological target: T1, FAAH (Homo sapiens, UniProt O00519); experiment: Assay Method 1: FAAH assay, 3H-anandamide hydrolysis in homogenate of cells transfected with human FAAH; assay type: biochemical; parameters: expressed in transfected cells; crude homogenate (T84 cell pellets named as alternative); settings: cell homogenate, 3H-AEA 80 nM, 1 h at rt, average of results
T1 sequence (O00519 1-579): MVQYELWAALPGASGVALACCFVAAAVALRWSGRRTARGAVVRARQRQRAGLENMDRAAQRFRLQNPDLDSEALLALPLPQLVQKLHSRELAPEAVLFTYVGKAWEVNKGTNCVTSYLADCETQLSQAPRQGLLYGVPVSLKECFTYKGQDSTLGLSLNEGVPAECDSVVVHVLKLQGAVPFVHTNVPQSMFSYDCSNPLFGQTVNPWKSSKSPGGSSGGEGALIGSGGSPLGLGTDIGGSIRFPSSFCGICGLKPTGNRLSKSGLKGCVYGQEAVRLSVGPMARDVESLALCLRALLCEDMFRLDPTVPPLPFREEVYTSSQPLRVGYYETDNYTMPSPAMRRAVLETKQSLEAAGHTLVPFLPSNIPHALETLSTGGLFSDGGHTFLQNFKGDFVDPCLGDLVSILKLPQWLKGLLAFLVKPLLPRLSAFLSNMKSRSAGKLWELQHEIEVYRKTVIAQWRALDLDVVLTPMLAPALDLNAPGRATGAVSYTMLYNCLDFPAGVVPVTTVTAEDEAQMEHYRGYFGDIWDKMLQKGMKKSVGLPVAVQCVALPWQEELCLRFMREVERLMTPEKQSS
Method: A. Transfection of Cells with Human FAAH
(§1) A 10-cm tissue culture dish with a confluent monolayer of SK-N-MC cells was split 2 days (d) prior to transfection. Using sterile technique, the media was removed and the cells were detached from the dish by the addition of trypsin. One fifth of the cells were then placed onto a new 10-cm dish. Cells were grown in a 37° C. incubator with 5% CO2 in Minimal Essential Media Eagle with 10% Fetal Bovine Serum. After 2 d, cells were approximately 80% confluent. These cells were removed from the dish with trypsin and pelleted in a clinical centrifuge. The pellet was re-suspended in 400 μL complete media and transferred to an electroporation cuvette with a 0.4 cm gap between the electrodes. Supercoiled human FAAH cDNA (1 μg) was added to the cells and mixed. The voltage for the electroporation was set at 0.25 kV, and the capacitance was set at 960 After electroporation, the cells were diluted into complete media (10 mL) and plated onto four 10-cm dishes. Because of the variability in the efficiency of electroporation, four different concentrations of cells were plated. The ratios used were 1:20, 1:10, and 1:5, with the remainder of the cells being added to the fourth dish. The cells were allowed to recover for 24 h before adding the selection media (complete media with 600 μg/mL G418). After 10 d, dishes were analyzed for surviving colonies of cells. Dishes with well-isolated colonies were used. Cells from individual colonies were isolated and tested.
(§2) T84 frozen cell pellets or transfected SK-N-MC cells (contents of 1×15 cm culture dishes) were homogenized in 50 mL of FAAH assay buffer (125 mM Tris, 1 mM EDTA, 0.2% Glycerol, 0.02% Triton X-100, 0.4 mM Hepes, pH 9). The assay mixture consisted of 50 μL of the cell homogenate, 10 μL of the test compound, and 40 μL of anandamide [1-^3H-ethanolamine] (^3H-AEA, Perkin-Elmer, 10.3 Ci/mmol), which was added last, for a final tracer concentration of 80 nM. The reaction mixture was incubated at rt for 1 h. During the incubation, 96-well Multiscreen filter plates (catalog number MAFCNOB50; Millipore, Bedford, Mass., USA) were loaded with 25 μL of activated charcoal (Multiscreen column loader, catalog number MACL09625, Millipore) and washed once with 100 μL of MeOH. Also during the incubation, 96-well DYNEX MicroLite plates (catalog number NL510410) were loaded with 100 μL of MicroScint40 (catalog number 6013641, Packard Bioscience, Meriden, Conn., USA). After the 1 h incubation, 60 μL of the reaction mixture were transferred to the charcoal plates, which were then assembled on top of the DYNEX plates using Centrifuge Alignment Frames (catalog number MACF09604, Millipore). The unbound labeled ethanolamine was centrifuged through to the bottom plate (5 min at 2000 rpm), which was preloaded with the scintillant, as described above. The plates were sealed and left at rt for 1 h before counting on a Hewlett Packard TopCount.
(§3) Results for compounds tested in these assays are summarized in Table 1, as an average of results obtained. Compounds were tested in the free base or trifluoroacetic acid salt form. Compounds tested in the trifluoroacetic acid salt form are indicated as such by a “*” designation after the example number. Where activity is shown as greater than (>) a particular value, the value is the solubility limit of the compound in the assay medium or the highest concentration tested in the assay.

[2] = biological target: T2, rat FAAH (Rattus norvegicus, UniProt P97612); experiment: Assay Method 2: FAAH assay, 3H-anandamide hydrolysis in homogenate of cells transfected with rat FAAH; assay type: biochemical; settings: cell homogenate, 3H-AEA 80 nM, 1 h at rt, average of results
T2 construct: expressed in transfected cells; crude homogenate
T2 sequence (P97612 1-579): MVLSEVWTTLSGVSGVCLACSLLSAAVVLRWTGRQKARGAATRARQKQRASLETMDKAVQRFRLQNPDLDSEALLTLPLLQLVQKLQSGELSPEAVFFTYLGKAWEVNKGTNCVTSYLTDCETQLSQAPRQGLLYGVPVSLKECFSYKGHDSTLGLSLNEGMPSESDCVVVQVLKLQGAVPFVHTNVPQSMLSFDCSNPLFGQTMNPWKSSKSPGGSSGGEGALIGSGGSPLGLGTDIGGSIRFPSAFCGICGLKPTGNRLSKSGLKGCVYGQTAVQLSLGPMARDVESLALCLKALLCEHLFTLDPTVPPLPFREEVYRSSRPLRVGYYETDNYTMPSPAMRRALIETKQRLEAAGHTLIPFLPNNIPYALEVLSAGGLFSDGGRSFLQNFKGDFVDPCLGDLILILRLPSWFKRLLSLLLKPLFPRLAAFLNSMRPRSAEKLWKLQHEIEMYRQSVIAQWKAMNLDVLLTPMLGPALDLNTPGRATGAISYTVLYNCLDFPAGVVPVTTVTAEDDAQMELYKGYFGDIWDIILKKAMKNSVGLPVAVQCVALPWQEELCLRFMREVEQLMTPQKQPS
Method: A. Transfection of Cells with Rat FAAH
as §1, with “rat” for “human”, “960 μF.” for “960”
as §2, §3

Row | IC50 [1] [nM] | IC50 [2] [nM] | Compound
1 | > 10000 | 3000 | O=C(Nc1cccnc1)N1CC(COc2ccc(OC(F)(F)F)cc2)C1 [Example 5, 3-(4-Trifluoromethoxy-phenoxymethyl)-azetidine-1-carboxylic acid pyridin-3-ylamide]
2 | 5 | 4 | O=C(Nc1cnc2cccnn12)N1CC(CCOc2cccc(Oc3ccc(Cl)cc3)c2)C1 [Example 1, 3-{2-[3-(4-Chloro-phenoxy)-phenoxy]-ethyl}-azetidine-1-carboxylic acid imidazo[1,2-b]pyridazin-3-ylamide]
3 | 50 | 230 | O=C(Nc1cccnc1)N1CC(COc2cccc(Oc3ccc(OC(F)(F)F)cc3)c2)C1 [Example 25, 3-[3-(4-Trifluoromethoxy-phenoxy)-phenoxymethyl]-azetidine-1-carboxylic acid pyridin-3-ylamide]
4 | > 10000 | > 10000 | O=C(Nc1cccnc1)N1CC(COc2ccc3ncccc3c2)C1 [Example 15, 3-(Quinolin-6-yloxymethyl)-azetidine-1-carboxylic acid pyridin-3-ylamide, trifluoroacetate salt]
5 | > 10000 | > 10000 | O=C(Nc1cccnc1)N1CC(COc2ccc3c(c2)OCO3)C1 [Example 7, 3-(Benzo[1,3]dioxol-5-yloxymethyl)-azetidine-1-carboxylic acid pyridin-3-ylamide]
6 | 1 | 1 | O=C(Nc1cnccc1Cl)N1CC(CCOc2cccc(Oc3ccc(Cl)cc3)c2)C1 [Example 28, 3-{2-[3-(4-Chloro-phenoxy)-phenoxy]-ethyl}-azetidine-1-carboxylic acid (4-chloro-pyridin-3-yl)-amide]
7 | 3000 | 1000 | O=C(Nc1ccc2nccn2c1)N1CC(CCOc2cccc(Oc3ccc(Cl)cc3)c2)C1 [Example 41, 3-{2-[3-(4-Chloro-phenoxy)-phenoxy]-ethyl}-azetidine-1-carboxylic acid imidazo[1,2-a]pyridin-6-ylamide]
8 | 30 | 24 | O=C(Nc1cnc2ccccn12)N1CC(CCOc2cccc(Oc3ccc(Cl)cc3)c2)C1 [Example 42, 3-{2-[3-(4-Chloro-phenoxy)-phenoxy]-ethyl}-azetidine-1-carboxylic acid imidazo[1,2-a]pyridin-3-ylamide]
9 | 45 | 30 | O=C(Nc1cnccc1Cl)N1CCC(Cc2cccc(Oc3ccc(F)cc3)c2)C1 (stereo not drawn) [Example 75, 3-[3-(4-Fluoro-phenoxy)-benzyl]-pyrrolidine-1-carboxylic acid (4-chloro-pyridin-3-yl)-amide]
10 | > 10000 | > 10000 | O=C(Nc1cccnc1)N1CC(COc2ccccc2)C1 [Example 2, 3-Phenoxymethyl-azetidine-1-carboxylic acid pyridin-3-ylamide, trifluoroacetate salt]
11 | 120 | 200 | O=C(Nc1cccnc1)N1CC(COc2cccc(Oc3ccc(Cl)cc3)c2)C1 [Example 26, 3-[3-(4-Chloro-phenoxy)-phenoxymethyl]-azetidine-1-carboxylic acid pyridin-3-ylamide]
12 | > 10000 | 770 | O=C(Nc1noc2ccccc12)N1CCC(Cc2ccc3c(c2)OC(F)(F)O3)C1 (stereo not drawn) [Example 72, 3-(2,2-Difluoro-benzo[1,3]dioxol-5-ylmethyl)-pyrrolidine-1-carboxylic acid benzo[d]isoxazol-3-ylamide]
13 | 100 | 1000 | CS(=O)(=O)c1ccc(Oc2cccc(OCC3CCN(C(=O)Nc4cccnc4)C3)c2)cc1 (stereo not drawn) [Example 52, 3-({3-[4-(Methylsulfonyl)phenoxy]phenoxy}methyl)-N-pyridin-3-ylpyrrolidine-1-carboxamide]
14 | 849 | 1230 | O=C(Nc1cccnc1)N1CC(CCOCc2ccc(Cl)c(Cl)c2)C1 [Example 68, 3-[2-(3,4-Dichloro-benzyloxy)-ethyl]-azetidine-1-carboxylic acid pyridin-3-ylamide, trifluoroacetate salt]
15 | > 10000 | > 10000 | O=C(Nc1cccnc1)N1CC(COc2ccc(Br)cc2)C1 [Example 3, 3-(4-Bromo-phenoxymethyl)-azetidine-1-carboxylic acid pyridin-3-ylamide]
16 | 5000 | 7000 | O=C(Nc1cccnc1)N1CCC(CCc2ccc3c(c2)OC(F)(F)O3)C1 (stereo not drawn) [Example 77, 3-[2-(2,2-Difluoro-benzo[1,3]dioxol-5-yl)-ethyl]-pyrrolidine-1-carboxylic acid pyridin-3-ylamide]
17 | 1600 | 1600 | O=C(Nc1cnccc1Cl)N1CCC(CCOc2cccc(OC(F)(F)F)c2)C1 (stereo not drawn) [Example 61, 3-[2-(3-Trifluoromethoxy-phenoxy)-ethyl]-pyrrolidine-1-carboxylic acid (4-chloro-pyridin-3-yl)-amide]

Row | Compound | IC50 [1] [nM] | IC50 [2] [nM]
18 | CCCCOc1cccc(OCCC2CN(C(=O)Nc3cccnc3)C2)c1 [Example 33, 3-[2-(3-Butoxy-phenoxy)-ethyl]-azetidine-1-carboxylic acid pyridin-3-ylamide] | 34 | 2000

From patent US8901111B2, “Aryl-substituted heterocyclic urea modulators of fatty acid amide hydrolase” (Janssen Pharmaceutica NV, priority 2009, dated 2014)
